# Measurements: US9006454B2, “Dihydroorotate dehydrogenase inhibitors” (Merck Serono S.A., priority 2009, dated 2015)
# What was measured:
# Jurkat cells = assay: Measurement of cell proliferation (Jurkat cell), XTT assay; type: cell-based; conditions: Homo sapiens, Jurkat; for inhibition at 1 µM: compound at 1 uM, read-out: % inh Jurkat_cells @ 1 uM (%); for EC50: 72 h, XTT cell viability
# Method: See also Roehm, N et al [1991] An improved colorimetric assay for cell proliferation and viability utilizing the tetrazolium salt XTT. J. Immunol. Methods 142:257-265.
# Culture Jurkat cells in T-25 flasks at a density of 0.2×10^6/ml 2-3 days before the day of experiment set up.
# Centrifuge Jurkat T-cell suspension at 1200 rpm for 10 minutes and resuspend cells again in fresh RPMI medium with 10% FBS.
# Count the cells and dilute suspension to a density of 2×10^6 cells/ml. Seed 50 μL of this suspension in each well of a 96 well plate (100,000 cells per well). Keep the edges of the plate empty to avoid evaporation.
# Serially dilute DMSO stocks of compounds to get different concentrations for an EC50 curve. 50 μL of compound diluted in media (2× concentration required in well) is added to each well. DMSO concentration should be kept constant at 0.25-0.5% for all wells.
# Typically, for all compounds with IC50<1 μM, compound concentration can start at 10 μM followed by half log dilutions for a total of 8-10 concentrations. Each concentration has to be tested in triplicate.
# Include controls such as cells without compound (with same DMSO concentration as compound wells), and media control
# Incubate the 96 well plate in a CO2 incubator at 37° C. for 72 hrs before determining cell viability using XTT assay
# XTT assay: to each well, add 50 μL of 1 mg/ml XTT solution with 20 μl of PMS/mL. Read the plates after 2 hours at 465 nm using the spectrophotometer. XTT reading for media without cells is used as background reading.
# Calculate % cell viability assuming that the cells without compound are 100% viable.
# Plot % cell viability as a function of concentration and determine EC50 by using software such as Graph Pad Prism to fit the curve.
# DHODH = DHODH (Homo sapiens (Human), UniProt Q02127); assay: DHODH activity assay (coupled enzyme assay, DCIP reduction, absorbance at 610 nm); type: biochemical; conditions: for inhibition at 10 µM: compound at 10 uM, read-out: inh @ 10 uM hDHODH (%)
# Sequence of DHODH (Q02127 whole entry): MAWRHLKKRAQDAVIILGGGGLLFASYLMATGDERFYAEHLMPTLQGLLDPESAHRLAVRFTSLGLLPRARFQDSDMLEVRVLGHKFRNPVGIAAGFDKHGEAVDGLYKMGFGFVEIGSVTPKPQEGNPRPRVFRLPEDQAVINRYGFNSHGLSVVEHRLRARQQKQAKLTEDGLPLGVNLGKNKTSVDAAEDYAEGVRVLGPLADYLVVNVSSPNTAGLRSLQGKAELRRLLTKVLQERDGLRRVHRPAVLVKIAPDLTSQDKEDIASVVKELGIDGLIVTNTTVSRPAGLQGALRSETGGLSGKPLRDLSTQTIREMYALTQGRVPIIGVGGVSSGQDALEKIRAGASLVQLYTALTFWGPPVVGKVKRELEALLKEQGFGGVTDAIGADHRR
# Method: The DHODH activity assay is a coupled enzyme assay in which oxidation of DHO and subsequent reduction of ubiquinone are stoichiometrically equivalent to the reduction of DCIP ([…]). The reduction of DCIP is accompanied by a loss of absorbance at 610 nm.
# Buffer Preparation: 50 mM tris HCl, 150 mM KCl, and pH 8.0, 0.8% triton.
# 5 μL of Dimethyl sulfoxide or a compound of formula I in DMSO solution was added to the wells of a 96 well plate. Compounds of formula I were measured at 10 μM.
# Protein along with buffer was added, so that the total volume including the DMSO was 87 μL. Compound and protein were incubated for half an hour at room temperature after mixing. 5 μL of 20 mM solution of L-Dihydroorotic acid, 5 μL of 2 mM solution of Decylubiquinone and 3 μL of 2 mM solution of 2,6-Dichloroindophenol sodium salt hydrate were added to the above solution (total assay volume 100 μL). The mixture was stirred for 2 min and absorbance was recorded at every 10 min at 610 nanometers.
# Percent Inhibition is Calculated as Follows
# Positive control contains DMSO, buffer, enzyme and substrates
# No Enzyme reaction contains DMSO, buffer and substrates
# IC50 determination: • A 2 mM DMSO stock of the compound of formula I to be examined was prepared. ⅓rd dilutions were made as follows:
# 5 μL of each stock of compound of formula I (solution indicated in column 4 of table) was used for each 100 μL assay. Therefore, 5 μL of the 2 mM stock provided 100 μL of 100 μM solution of compound of formula I, when made up with buffer, protein and substrate. See also: Ulrich et al. (2001) Eur. J. Biochem. 268, 1861-1868.
Compound,inhibition at 1 µM (Jurkat cells) [%],IC50 (DHODH) [nM],inhibition at 10 µM (DHODH) [%],EC50 (Jurkat cells) [nM]
O=C(O)c1cccn2nc(-c3ccc(-c4ccccc4)cc3)nc12 [I122],55.4,1200,88,–
Cc1cc(C(=O)O)c2nc(-c3c(F)c(F)c(-c4ccccc4F)c(F)c3F)[nH]c2c1 [I140],101,3.5,100,33
O=C(O)c1cccc2nc(-c3ccc(-c4ccc(F)cc4F)cc3)[nH]c12 [I32],21.1,–,69.6,–
O=C(O)c1cccc2nc(-c3c(F)c(F)c(-c4cccc(F)c4)c(F)c3F)[nH]c12 [I125],92,28.2,97,–
"Cc1cc(C(=O)O)c2[nH]c(-c3ccc(-c4ccccn4)cc3)nc2c1 [I74, 6-Methyl-2-(4-pyridin-2-yl-phenyl)-3H-benzoimidazole-4-carboxylic acid]",18.4,–,56.6,–
Cc1cc(C(=O)O)c2nc(-c3ccc(-c4ccc(Oc5ccc(C=O)cc5)cc4)cc3)[nH]c2c1 [I135],21.8,1590,65.1,–
Cc1cc(C(=O)O)c2nc(-c3ccc(-c4cccs4)cc3)[nH]c2c1 [I149],47.5,1680,88.4,–
Cc1cc(C(=O)O)c2[nH]c(-c3ccc(-c4cccc(OCCC5CCNCC5)c4)cc3)nc2c1 [I153],15.1,–,53.4,–
Cc1cc(-c2nnc(O)o2)c2nc(-c3c(F)c(F)c(-c4ccccc4)c(F)c3F)[nH]c2c1 [I159],13.4,–,32.3,–
Cc1cc(C(=O)O)c2nc(-c3ccc(-c4ccc(NC(=O)[C@@H]5CCCN5)cc4)cc3)[nH]c2c1 [I89],52,–,94.1,–
Cc1cc(C(=O)O)c2[nH]c(-c3ccc(-c4ccc(CNC(C)C)cc4)cc3)nc2c1 [I160],19.6,–,57.4,–
O=C(O)c1cccc2[nH]c(-c3ccc(-c4cccs4)cc3)nc12 [I192],26.1,–,74.7,–
Cc1cc(C(=O)O)c2nc(-c3ccc(-c4ccc(CN5CCCC5)cc4)cc3)[nH]c2c1 [I164],12.1,–,59.3,–
"Cc1cc(C(=O)O)c2nc(-c3ccc(Oc4ccccn4)cc3)[nH]c2c1 [I71, 6-Methyl-2-[4-(pyridin-2-yloxy)-phenyl]-1H-benzoimidazole-4-carboxylic acid]",28.3,4380,75.5,–
O=C(O)c1cccc2[nH]c(-c3c(F)c(F)c(-c4ccsc4)c(F)c3F)nc12 [I144],68.2,441,89.8,–
Cc1cc(C(N)=O)c2nc(-c3c(F)c(F)c(-c4ccccc4)c(F)c3F)[nH]c2c1 [I102],64.2,446,87.9,–
COc1cccc(-c2ccc(-c3nc4c(C(=O)O)cccc4[nH]3)cc2)c1 [I11],9.4,–,13.7,–
"CC(=O)c1cccc2[nH]c(-c3ccc(-c4ccccc4)cc3)nc12 [I69, 1-(2-Biphenyl-4-yl-1H-benzoimidazol-4-yl)-ethanone]",9.2,–,12.5,–
Cc1cc(-c2nnn[nH]2)c2nc(-c3c(F)c(F)c(-c4ccccc4)c(F)c3F)[nH]c2c1 [I103],64.2,1200,107,–
O=C(O)c1cccc2nc(-c3c(F)c(F)c(-c4cccs4)c(F)c3F)[nH]c12 [I124],80.1,500,104,–
Cc1cc(C(=O)O)c2[nH]c(-c3c(F)c(F)c(-c4ccc(O)cc4)c(F)c3F)nc2c1 [I96],102,16,98.4,–
Cc1cc(C(=O)O)c2nc(-c3ccc(-c4ccc(OCc5ccccn5)cc4)cc3)[nH]c2c1 [I119],40.3,2230,88.1,–

Compound,inhibition at 1 µM (Jurkat cells) [%],IC50 (DHODH) [nM],inhibition at 10 µM (DHODH) [%],EC50 (Jurkat cells) [nM]
Cc1cc(C(=O)O)c2nc(-c3cc(-c4ccccc4)cs3)[nH]c2c1 [I49],11,–,32.4,–
O=C(O)c1cccc2nc(-c3ccc(-c4ccccc4F)cc3F)[nH]c12 [I24],53.2,965,86.7,–
Cc1cc(C(=O)O)c2nc(-c3ccc(-c4ccc(Oc5ccccn5)cc4)cc3)[nH]c2c1 [I171],35,–,86,–
O=C(O)c1cccc2[nH]c(-c3ccc(-c4ccc(OCc5ccccn5)cc4)cc3)nc12 [I182],26.9,–,57.7,–
Cc1cc(C(=O)O)c2[nH]c(-c3ccc(-n4c(C)ccc4C)cc3)nc2c1 [I121],70.7,401,108,–
"O=C(O)c1cc(F)cc2nc(-c3ccc(-c4ccccc4)cc3F)[nH]c12 [Example 29, 6-Fluoro-2-(3-fluoro-biphenyl-4-yl)-3H-benzoimidazole-4-carboxylic acid]",71.6,–,93.4,–
Cc1cc(C(=O)O)c2nc(-c3ccc(-c4ccccc4)cc3)n(CCO)c2c1 [I93],29,4790,78.8,–
Cc1cc(C(=O)O)c2[nH]c(-c3ccc(-c4ccc(F)cc4F)cc3F)nc2c1 [I31],55.5,1010,92.7,–
O=C(O)c1cccc2[nH]c(-c3ccc(-c4ccc(CO)cc4)cc3)nc12 [I173],44,–,80,–
"Cc1cc(C(=O)O)c2[nH]c(-c3ccc(Oc4ccc(C#N)cc4)cc3)nc2c1 [I78, 2-[4-(4-Cyano-phenoxy)-phenyl]-6-methyl-3H-benzoimidazole-4-carboxylic acid]",22.2,–,58.5,–
Cc1cc(C(=O)O)c2[nH]c(-c3c(F)c(F)c(-c4cccc(O)c4)c(F)c3F)nc2c1 [I104],110,13.5,104,–
O=Cc1ccc(-c2ccc(-c3nc4c(C(=O)O)cccc4[nH]3)cc2)cc1 [I181],9.4,–,40.4,–
O=C(O)c1cccc2[nH]c(-c3c(F)c(F)c(-c4ccc(F)c(F)c4)c(F)c3F)nc12 [I130],23.2,1220,66.9,–
O=C(O)c1cccc2[nH]c(-c3c(F)c(F)c(-c4cccc(F)c4F)c(F)c3F)nc12 [I128],64.9,209,73.1,–
O=C(O)c1cc(Cl)cc2[nH]c(-c3ccc(-c4ccccc4)cc3F)nc12 [I44],64.9,659,97.3,–
Cc1cc(C(=O)O)c2c(c1)nc(-c1c(F)c(F)c(-c3ccccc3)c(F)c1F)n2C [I123],111,3,105,41
O=C(O)c1cccc2[nH]c(-c3ccc(-c4ccsc4)cc3)nc12 [I22],15.3,–,57.3,–
O=C(O)c1cccc2[nH]c(-c3ccc(-c4cccc(OCc5ccccc5)c4)cc3)nc12 [I118],41.4,1300,84,–
Nc1nnc(-c2cccc3[nH]c(-c4ccc(-c5ccccc5)cc4)nc23)s1 [I108],11,15900,53,–
O=C(O)c1cccc2[nH]c(-c3ccc(-c4cccc(F)c4)cc3)nc12 [I17],23.5,3790,65.2,–
Cc1cc(C(=O)O)c2c(c1)nc(-c1ccc(-c3ccc(O)cc3)cc1)n2CCO [I97],37.6,2140,80,–
